Tests used:
NLRP3 = NLRP3 (Homo sapiens (Human), UniProt Q96P20); test: Inhibitory activity of NLRP3: IL1β induction in THP1 cells (PMA, LPS, nigericin) and IL1β ELISA detection; type: cell-based; conditions: THP-1, 300 nM compound, LPS 500 ng/mL + nigericin 10 μg/mL
Protocol: Study of the Compound's Inhibitory Activity of NLRP3 Step 1: IL1 β Induction 60 μL/well polylysine was added to 96-well cell culture plate and incubated at 37° C. for 30 min. Discard the solution in the plate and wash the cell culture plate twice with PBS. THP1 (50000 cells/well/95 μL) was planted in cell culture plates, 5 μL of PMA was added to each well (the final concentration was 50 ng/mL), and cultured overnight in a thermostat incubator at 37° C. The supernatant was gently sucked out, the cell culture plate was washed with PBS twice, and 80 μL cell culture medium without FBS, followed by 5 μL/well LPS (final concentration 500 ng/mL) was added to each well. The plate was cultured in a thermostat incubator at 37° C. for 3 hours. […] Then 10 μL/well nigericin (final concentration 10 μg/mL) was added to the cell plate and cultured in a thermostat incubator at 37° C. for 0.5 hours. The cell supernatant was collected into a new cell plate and frozen at -80° C. for future use. Step 2: IL1 β detection IL1β antibody was diluted 60 times with coating buffer, and 100 μL of diluted antibody was added to each well of ELISA plate, and incubated at 4° C. overnight. Discard the liquid in the ELISA plate and wash it 4 times with eluent. Add 300 μL/well reagent diluent and incubate the ELISA plate at room temperature for 1.5 hours. Wash the plate with eluent for four times. […] Wash the plate with eluent for four times. Each well was added with 100 μL detection antibody and incubated at 37° C. for 2 h. Wash the plate with eluent for four times. Add 100 μL of HRP labeled secondary antibody to each well. Incubate at 37° C. for 1 hour. Wash the plate with eluent for four times. Add 100 μL of A+B substrate per well. Incubate at 37° C. for 30 minutes. Add 100 μL STOP solution per well. Gently shake the plate for a few seconds. Read the absorption value at 450 nm on the EnVision multifunction reader and calculate the Inhibitory rate according to the following formula: Inhibition %=([…]). […] The log value of concentration was taken as the X-axis and the percentage inhibitory rate as the Y-axis. […]

[1] = Pharmacokinetic study in rats after intragastrical administration; type: in vivo; conditions: rat, male SD rats, oral 3 mg/kg, plasma
Protocol: Pharmacokinetic Study in Rats
Instruments: XEVO TQ-S LC/MS instrument produced by Waters. All measurement data is collected and processed by Masslynx V4.1 software, and the data is calculated and processed by Microsoft Excel. Using WinNonLin 8.0 software, the statistical moment method was used to calculate the pharmacokinetic parameters. Mainly include kinetic parameters Tmax, T1/2, Cmax, AUClast etc. Column: ACQUITY UPLC BEH C18 (2.1 mm×50 mm, 1.7 μm); column temperature 40° C.; mobile phase A is water (0.1% formic acid), mobile phase B is acetonitrile, flow rate is 0.350 ml/min, gradient elution is adopted, the elution gradient is 0.50 min: 10% B; 1.50 min: 90% B; 2.50 min: 90% B; 2.51 min: 10% B; 3.50 min: stop. Injection volume: 1 μL.
Animals: 3 male SD rats with a weight range of 200-220 g. After purchase, they will be kept in the laboratory of the Experimental Animal Center for 2 days and then used. They will be fasted for 12 hours predose and 4 hours after dosing. Drinking water is free during the test. After the rats were gavage, blood samples were taken according to the established time point.
Solvent: 0.4% ethanol+0.4% Tween80+99.2% (0.5% methylcellulose M450). Preparation of the solution for intragastrical administration: accurately weigh the compound, add it to the solvent, and use ultrasound at room temperature for 5 minutes to completely dissolve the drug, and prepare a 0.3 mg/mL medicinal solution.
Pharmaceutical samples: Generally, multiple samples with similar structures (with a molecular weight difference of more than 2 units) are taken, accurately weighed, and administered together (cassette PK). In this way, multiple compounds can be screened at the same time and their oral absorption rates can be compared. A single administration was also used to study the pharmacokinetics of the drug sample in rats.
After intragastrical administration, blood was taken from the orbit at 0.25, 0.5, 1, 2, 4, 8, 10 and 24 hours. Then take 50 μL of the plasma sample, add 200 μL of acetonitrile (including internal standard control verapamil 2 ng/mL), vortex for 3 min and centrifuge at 20000 ref, 4° C. for 10 min. The supernatant plasma was used for LC-MS/MS analysis.
Accurately weigh the compounds to prepare different concentrations, perform quantitative analysis on mass spectrometry to establish a standard curve, and then test the concentration of the above-mentioned compound in the plasma to obtain the compound concentration at different time points. All measurement data are collected and processed by relevant software, and the statistical moment method is used to calculate the pharmacokinetic parameters (mainly including kinetic parameters Tmax, T1/2, Cmax, AUClast etc).

NLRP3, sequence (Q96P20 whole entry): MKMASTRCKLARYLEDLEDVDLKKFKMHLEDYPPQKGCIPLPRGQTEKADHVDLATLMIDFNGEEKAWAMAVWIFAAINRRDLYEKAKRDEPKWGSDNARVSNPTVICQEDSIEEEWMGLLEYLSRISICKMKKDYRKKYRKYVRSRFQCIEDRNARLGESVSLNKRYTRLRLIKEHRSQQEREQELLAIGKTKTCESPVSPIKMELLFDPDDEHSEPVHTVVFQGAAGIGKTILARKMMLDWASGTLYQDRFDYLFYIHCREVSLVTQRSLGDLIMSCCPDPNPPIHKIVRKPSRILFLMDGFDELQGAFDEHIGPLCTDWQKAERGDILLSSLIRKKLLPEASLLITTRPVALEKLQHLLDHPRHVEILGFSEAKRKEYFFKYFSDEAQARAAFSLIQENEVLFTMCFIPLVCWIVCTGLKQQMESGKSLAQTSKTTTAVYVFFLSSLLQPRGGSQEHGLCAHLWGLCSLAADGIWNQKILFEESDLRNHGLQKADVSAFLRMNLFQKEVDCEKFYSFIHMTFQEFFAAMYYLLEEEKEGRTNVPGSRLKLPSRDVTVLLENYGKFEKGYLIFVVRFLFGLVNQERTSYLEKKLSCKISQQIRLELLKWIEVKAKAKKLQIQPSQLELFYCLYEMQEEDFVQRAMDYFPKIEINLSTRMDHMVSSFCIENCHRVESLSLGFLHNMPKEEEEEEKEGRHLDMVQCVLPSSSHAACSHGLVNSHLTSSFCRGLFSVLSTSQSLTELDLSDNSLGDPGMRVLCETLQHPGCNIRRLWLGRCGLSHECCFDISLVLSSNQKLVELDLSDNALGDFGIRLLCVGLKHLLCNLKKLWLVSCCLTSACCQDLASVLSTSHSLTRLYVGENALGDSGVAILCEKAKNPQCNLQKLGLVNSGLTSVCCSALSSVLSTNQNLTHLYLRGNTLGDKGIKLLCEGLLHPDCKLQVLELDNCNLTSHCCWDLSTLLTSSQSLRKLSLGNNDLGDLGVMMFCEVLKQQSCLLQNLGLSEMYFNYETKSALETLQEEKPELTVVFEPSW

| inhibition at 0.3 µM (NLRP3) [%] | SMILES | Cmax [1] [ng/mL] | Tmax [1] [h] | half-life [1] [h] | AUC(0-t) ([1]; read-out: AUC(0-24)) [ng·h/mL] |
| --- | --- | --- | --- | --- | --- |
| > 50 | Cc1cc2c(c(NC(=O)NS(=O)(=O)N(C)C)c1-c1ccnc(OCC3=CCCN(C)C3)c1)CCC2 [Compound 7] |  |  |  |  |
| > 50 | Cc1cc2c(c(NC(=O)NS(=O)(=O)C3CC3)c1-c1ccnc(OCC3=CCCN(C)C3)c1)CCC2 [Compound 6] |  |  |  |  |
| > 50 | Cc1cc2c(c(NC(=O)NS(C)(=O)=O)c1-c1ccnc(OCC3=CCN(C)CC3)c1)CCC2 [Compound 1] |  |  |  |  |
|  | COc1cc(-c2c(C)cc3c(c2NC(=O)NS(=O)(=O)c2ccn(C4CC(=C(F)F)C4)n2)CCC3)ccn1 (stereo not shown) [Compound 22] | 1530 | 1 | 5.6 | 6710 |

— patent publication US20240336562A1, “COMPOUND SERVING AS NLRP3 INHIBITOR” (Hangzhou Innogate Pharma Co., Ltd., priority 2021, published 2024)
